We go through 13 molecules from PubChem BioAssay AID1963869 (Molecular Pharmacology Branch, DTP, NCI, 2024).

Several values for one entry are separate records, joined by “and”; a condition that tells them apart may be missing. Identical values can stand only once. Where only a bound is given, the exact number is not on record here.

This experiment deals with KRAS patient-derived spheroids with HUVEC/MSC, viability. Description: Anticancer human tumor 323965-272-R-J2-PDC patient-derived pancreatic carcinoma cell line growth inhibition [KRAS2]. The conditions noted are these: for viability, T/C: stronger effect = lower value. The source says: Multicellular complex tumor spheroid response to RAS pathway inhibitors in combination with a targeted agents in patient-derived cell lines with oncogenic KRAS variants from multiple cancer types
A high-throughput screen of multi-cell type tumor spheroids was designed to identify active combinations of targeted small molecules and KRAS pathway inhibitors. Complex spheroids include a stromal component modeled by human endothelial cells (HUVEC) and fibroblasts modeled by human mesenchymal stem cells (MSCs). The concentration ranges selected for each drug and investigational agent were based upon clinically achievable concentrations if the clinical Cmax of the agent was known.
Compounds. The drugs and investigational agents: BI-3406 (NSC825286), BAY-293 (NSC824723), batoprotafib (TNO155; NSC825523), sotorasib (AMG 510; NSC818433), MRTX1257 (NSC819558), elimusertib (BAY 1895344; NSC800525), molibresib (GSK525762; NSC774829), temuterkib (LY3214996; NSC803410), venetoclax (NSC766270), alisertib (NSC759677), olaparib (NSC753686), talazoparib (NSC767125), erdafitinib (NSC781556), ipatasertib (NSC767898), cabozantinib (NSC761068), nintedanib (NSC756659), abemaciclib (NSC768073), docetaxel (NSC628503), trametinib (NSC758246), and sapanisertib (NSC764658) were obtained from the National Cancer Institute (NCI) Developmental Therapeutics Program Chemical Repository. The FDA-approved anticancer drug set is available from the Developmental Therapeutics Program. […] The stock solutions were prepared in dimethyl sulfoxide (DMSO, Sigma-Aldrich, St. Louis, MO, cat. D2650) at 800-fold the tested concentration and stored at -70 degrees C prior to their use. All drugs and investigational agents were tested over a range starting from a high concentration at or near the clinical Cmax and decreasing in half-log increments. If the clinical Cmax for an agent had not been determined, the highest concentration tested was 10 microM.
Cell Culture. All cells were maintained in an incubator at 37 degrees C and 5% CO2 with 95% humidity. The PDC lines were cultured according to standard operating procedures established by the NCI PDMR (https://pdmr.cancer.gov/sops/default.htm). Briefly, all PDCs were thawed and cultured in Matrigel-coated flasks prepared with a working solution of 1X Ham's F-12 nutrient mix, without supplementation (Invitrogen, Waltham, MA, cat. 11765054), 100 U/mL penicillin-streptomycin (Invitrogen, cat. 15140122), and 2.5% Matrigel (Corning Inc., Corning, NY, cat. 354248) for the first three passages. All PDCs were cultured in complete DMEM/F-12 media containing advanced DMEM/F-12 (Invitrogen, cat. 12634028), 4.9% defined fetal bovine serum, heat inactivated (HyClone Laboratories Inc., Logan, UT, cat. SH30070.03HI), 389 ng/mL hydrocortisone (Sigma-Aldrich, cat. H4001), 9.7 ng/mL human EGF recombinant protein (Invitrogen, cat. PHG0313), 23.4 microg/mL adenine (Sigma-Aldrich, cat. A2786), 97.3 U/mL penicillin-streptomycin (Invitrogen, cat. 15140122), 1.9 mM L-glutamine (Invitrogen, cat. 25030081), and 9.7 microM Y-27632 dihydrochloride (Tocris Bioscience, Bristol, United Kingdom, cat. 1254). The PDCs were cultured in complete DMEM/F12 media without 9.7 microM Y-27632 dihydrochloride for at least two passages prior to the screen. The established cell line HOP-62 was cultured in RPMI 1640 medium, HEPES (Invitrogen, cat. 22400105) with 10% defined fetal bovine serum (HyClone Laboratories Inc., cat. SH30070.03) and 2 mM L-glutamine (Invitrogen, cat. 25030081). The pooled donor HUVEC were cultured in endothelial cell growth medium 2 (PromoCell, Heidelberg, Germany, cat. C-22011) and the hMSC were cultured in mesenchymal stem cell growth medium 2 (PromoCell, cat. C-28009). For all experiments, HUVEC and hMSC were used at passages </=5, while the malignant cell lines were used at passages </=15. […]

The mark [1] stands for this setting: compound alone, run of 08/19/2021.
[2] abbreviates: compound alone, run of 08/26/2021.
[3] abbreviates: compound alone, run of 09/02/2021.
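Note: spheroids exposed to agents for 7 days.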

By viability, T/C is commonly meant the ratio of treated to control. For orientation: IC50 means the concentration at which inhibition is half-maximal. With `C=CC(=O)N1CCN(c2nc(=O)n(-c3c(C)ccnc3C(C)C)c3nc(-c4c(O)cccc4F)c(F)cc23)C(C)C1` (centres undefined), the viability, T/C is 58.9% [middle of 17 runs] (compound 0.1 µM); 58.4% [middle of 17 runs] (compound 0.316 µM); 59.1% [middle of 17 runs] (compound 1 µM); 60.4% [middle of 17 runs] (compound 3.16 µM); 52% [middle of 17 runs] (compound 10 µM). Besides, the half-inhibitory concentration (IC50) under setting [1] is > 10 µM and 2.73 µM; the IC50 under setting [2] is > 10 µM and 7.82 µM and 9.64 µM; the concentration for half-maximal inhibition (IC50) under setting [3] was above 10 µM.

Turning to `CC(C)NCC(C(=O)N1CCN(c2ncnc3c2C(C)CC3O)CC1)c1ccc(Cl)cc1` (centres undefined), the viability, T/C (compound 0.0316 µM) is 97.7% [middle of 5 runs]; the viability, T/C (compound 0.1 µM) is 94% [middle of 5 runs]; the viability, T/C (compound 0.316 µM) is 84.9% [middle of 5 runs]; the viability, T/C (compound 1 µM) is 64.6% [middle of 5 runs]; the viability, T/C (compound 3.16 µM) is 50.4% [middle of 5 runs]; the viability, T/C (compound 10 µM) is 41.8% [middle of 5 runs]. Besides, the IC50 (curve of compound) was 2.93 µM [middle of 5 runs].

As for `CC1(C)CCC(CN2CCN(c3ccc(C(=O)NS(=O)(=O)c4ccc(NCC5CCOCC5)c([N+](=O)[O-])c4)c(Oc4cnc5[nH]ccc5c4)c3)CC2)=C(c2ccc(Cl)cc2)C1`, the viability, T/C was 100% [middle of 5 runs] (compound 0.0316 µM); 94.9% [middle of 5 runs] (compound 0.1 µM); 98% [middle of 5 runs] (compound 0.316 µM); 96.1% [middle of 5 runs] (compound 1 µM); 21% [middle of 5 runs] (compound 3.16 µM); 7.62% [middle of 5 runs] (compound 10 µM). For the same molecule, for the setting “curve of compound”, the IC50 was 1.99 µM [middle of 5 runs].

Regarding `CC1OCC2(CCN(c3cnc(Sc4ccnc(N)c4Cl)c(N)n3)CC2)C1N` (centres undefined), the viability, T/C is, setting by setting: (compound 0.0316 µM) 77.5% and 85.9% and 85.1%; (compound 0.316 µM) 60% [middle of 19 runs]. In addition, the IC50 by setting is: under setting [2], 785 nM [middle of 5 runs]; under setting [3], 535 nM [middle of 6 runs]; (curve of compound) 1.1 µM [middle of 5 runs].

Consider `CCNC(=O)CC1N=C(c2ccc(Cl)cc2)c2cc(OC)ccc2-n2c(C)nnc21` (centres undefined), for which the viability, T/C is 97.2% [middle of 5 runs] (compound 0.0316 µM); 83.4% [middle of 5 runs] (compound 0.1 µM); 62.2% [middle of 5 runs] (compound 0.316 µM); 44.5% [middle of 5 runs] (compound 1 µM); 39.8% [middle of 5 runs] (compound 3.16 µM); 36.7% [middle of 5 runs] (compound 10 µM). Moreover, the IC50 (curve of compound) is 798 nM [middle of 5 runs].

With `CNCc1ccccc1-c1csc(C(C)Nc2nc(C)nc3cc(OC)c(OC)cc23)c1` (centres undefined), the viability, T/C runs as follows: (compound 0.316 µM) 89.6% [middle of 16 runs]; (compound 1 µM) 89.2% [middle of 16 runs]. Further, the IC50 under setting [2] was 5.39 µM [middle of 4 runs] and the IC50 under setting [3] is 4.96 µM [middle of 6 runs].

For `COC(=O)c1ccc2c(C(=Nc3ccc(N(C)C(=O)CN4CCN(C)CC4)cc3)c3ccccc3)c(O)[nH]c2c1`, the viability, T/C was 97.4% [middle of 5 runs] (compound 0.0316 µM); 102% [middle of 5 runs] (compound 0.1 µM); 101% [middle of 5 runs] (compound 0.316 µM); 98% [middle of 5 runs] (compound 1 µM); 98.7% [middle of 5 runs] (compound 3.16 µM). Where the note is “curve of compound”, the IC50 was 7.38 µM and > 10 µM and 7.57 µM.

As for `COc1cc(Nc2ncc3c(n2)-c2ccc(Cl)cc2C(c2c(F)cccc2OC)=NC3)ccc1C(=O)O`, the viability, T/C by setting is: (compound 0.0316 µM) 91.7% [middle of 5 runs]; (compound 0.1 µM) 72.2% [middle of 5 runs]; (compound 0.316 µM) 45.2% [middle of 5 runs]; (compound 1 µM) 51.5% [middle of 5 runs]; (compound 3.16 µM) 65.7% [middle of 5 runs]; (compound 10 µM) 69% [middle of 5 runs]. Besides, the IC50 (curve of compound) is 10 µM and > 10 µM.

As for `COc1cc(OC)cc(N(CCNC(C)C)c2ccc3ncc(-c4cnn(C)c4)nc3c2)c1`, the viability, T/C is, setting by setting: (compound 0.0316 µM) 102% [middle of 5 runs]; (compound 0.1 µM) 101% [middle of 5 runs]; (compound 0.316 µM) 102% [middle of 5 runs]; (compound 1 µM) 103% [middle of 5 runs]; (compound 3.16 µM) 105% [middle of 5 runs]; (compound 10 µM) 87.5% [middle of 5 runs]. Besides, where the note is “curve of compound”, the IC50 was above 10 µM.

On to `COc1cc2nc(C)nc(NC(C)c3cc(N)cc(C(F)(F)F)c3)c2cc1OC1CCOC1` (centres undefined), for which the viability, T/C reads like this: (compound 0.316 µM) 75.7% [middle of 17 runs]; (compound 3.16 µM) 77.2% [middle of 17 runs]. Also, the IC50 under setting [1] was above 10 µM, the IC50 under setting [2] was above 10 µM and the IC50 under setting [3] is above 10 µM.

For the molecule `COc1cc2nccc(Oc3ccc(NC(=O)C4(C(=O)Nc5ccc(F)cc5)CC4)cc3)c2cc1OC`, the viability, T/C was 100% [middle of 5 runs] (compound 0.0316 µM); 104% [middle of 5 runs] (compound 0.1 µM); 96.2% [middle of 5 runs] (compound 0.316 µM); 104% (2×) and 101% (2×) and 99.7% (compound 1 µM); 92.9% [middle of 5 runs] (compound 3.16 µM); 87.7% [middle of 5 runs] (compound 10 µM). The IC50 (curve of compound) is above 10 µM.

Regarding `Cn1nccc1Nc1nccc(-c2cc3c(s2)C(C)(C)N(CCN2CCOCC2)C3=O)n1`, the viability, T/C runs as follows: (compound 0.0316 µM) 92.9% [middle of 5 runs]; (compound 0.1 µM) 87.8% [middle of 5 runs]; (compound 0.316 µM) 77.6% [middle of 5 runs]; (compound 1 µM) 61.5% [middle of 5 runs]; (compound 3.16 µM) 43.7% [middle of 5 runs]; (compound 10 µM) 38.1% [middle of 5 runs]. In addition, the IC50 (curve of compound) is 2.35 µM [middle of 5 runs].

Regarding `O=C(c1cc(Cc2n[nH]c(=O)c3ccccc23)ccc1F)N1CCN(C(=O)C2CC2)CC1`, the viability, T/C (compound 0.0316 µM) is 102% [middle of 5 runs]; the viability, T/C (compound 0.1 µM) is 102% [middle of 5 runs]; the viability, T/C (compound 0.316 µM) is 96.4% [middle of 5 runs]; the viability, T/C (compound 1 µM) was 100% [middle of 5 runs]; the viability, T/C (compound 3.16 µM) is 92.1% [middle of 5 runs]; the viability, T/C (compound 10 µM) was 59.7% [middle of 5 runs]. The IC50 (curve of compound) was above 10 µM.
